Test results from EP3349734B1, “USE OF SOLUBLE AND INSOLUBLE FRACTIONS OF A CYCLODEXTRIN POLYMER AND OF MIXTURES THEREOF AS AN EXCIPIENT IN A TABLET” (Université de Lille, priority 2015, dated 2017).

What was measured:
Type in all cases: physicochemical
[1] = Phase-solubility diagram of ibuprofène with cyclodextrins or soluble polymer fractions; settings: calculated from slope and So of the solubility diagram
Experimental: (§1) Les diagrammes de solubilité de plusieurs principes actifs ont été effectués en présence de cyclodextrines et de fractions solubles de polymères de cyclodextrine mentionnés à l'exemple 1.
(§2) Des solutions de concentration croissante de cyclodextrines et fractions solubles de polymères de cyclodextrine ont été préparées dans de l'eau ultrapure [0-70 g/L]. 10 mL de chacune des solutions ont été mis en présence d'un excès du principe actif (20 mg) sous agitation pendant 24 heures à température ambiante. Les solutions ont ensuite été filtrées avec une membrane en cellulose et en Nylon (0,45 µm; VWR International, USA) respectivement pour l'Ibuprofène et le Piroxicam. L'ibuprofène a été dosé par HPLC (Shimadzu LC-2010 HT Liquid Chromatography), la phase mobile de l'ibuprofène est un mélange acétonitrile/eau (60:40) avec un pH de 2,25, une colonne C18 a été utilisée. Le piroxicam a été dosé par spectrophotométrie UV-Vis à 356 nm (UV 1800 Shimadzu).
(§3) La constante de stabilité (K1:1) est utilisée pour comparer l'affinité de principes actifs pour différentes cyclodextrines ou dérivés. La solubilité totale de médicament (St) en solution aqueuse de cyclodextrine sera : [formula]
(§4) So = solubilité intrinsèque du médicament; [CD]1 = concentration totale en cyclodextrine dans le milieu aqueux
(§5) Une parcelle de St rapport [CD] t, selon l'équation (1), donnera une ligne droite avec une pente (K 1:1 So / (1 + K 1:1 So)) et une interception (Sint) égale à So. K 1:1 est calculée à partir de la pente et So : [formula]
Afin de pouvoir faire une comparaison directe entre cyclodextrine monomère et cyclodextrine polymérisée, les diagrammes de solubilité sont présentés en fonction de la concentration rapportée en gramme de monomère de cyclodextrine par litre. Tableau 3 : Solubilité de l'ibuprofène et constantes de complexation en présence des cyclodextrines ou de fractions solubles de polymères de cyclodextrine à 10 et 50 g/L en cyclodextrine. L'utilisation de cyclodextrines sous forme de monomères ne tombe pas sous l'étendue de la protection revendiquée.

[2] = Tapped density, Carr compressibility index and flow of the powder; settings: for TAP (Ic^∗): Carr index after 500 taps
Experimental: Densité après tassement et indice de compressibilité de la composition compressible.
L'appareil utilisé est un appareil de tassement (Engelsmann powder tester, PTTD200, Pharma Test Instruments, India) composé d'une éprouvette graduée de 100 mL sur un socle vibrant. Les manipulations ont été réalisées suivant les conditions décrites dans la pharmacopée européenne (1997). Pour chaque poudre, le volume initial avant tassement est mesuré (V0) permettant de calculer la densité p0. Le volume final (Vf) de la poudre est ensuite mesuré après 500 tassements. La densité finale de la poudre après tassement peut ainsi être calculée (pf). On en déduit également l'indice de compressibilité ou Indice de Carr (Ic) donné par la formule suivante : [formula]
Les poudres ayant un indice de Carr inférieur à 20% présentent un bon écoulement.

[3] = Phase-solubility diagram of piroxicam with cyclodextrins or soluble polymer fractions; settings: calculated from slope and So of the solubility diagram
Experimental: as §1, §2, §3, §4, §5

[4] = Tablet disintegration time in water; settings: 100 mg tablets
Experimental: L'appareil utilisé était un appareil de désintégration manuelle PTZ-S, Pharma Test Instruments (Inde), composé d'un panier porte-tubes, un vase cylindrique bas de 1000 mL destiné à contenir le fluide d'immersion, un agencement thermostatique pour chauffer le fluide entre 35°C et 39°C, et d'un dispositif servant à imprimer au porte-tubes, dans le liquide d'immersion, un mouvement vertical alternatif. Le panier est composé de six tubes transparents verticaux, ouverts à leur extrémité supérieure et fermés à l'extrémité inférieure par une grille, un comprimé était placé dans chacun des six tubes du panier. Le fluide d'immersion était l'eau.
Le temps de désintégration a été déterminé comme le temps nécessaire pour que les comprimés passent à travers les mailles de la grille.

[5] = Tablet breaking strength (hardness), 5 mm / 100 mg tablets; settings: no active ingredient, no other additive
Description: La machine à comprimer alternative utilisée était une Korsch (Allemagne) équipé de poinçon plat cylindrique de diamètre 5 mm. Les étapes de compression étaient les suivantes: (1) le remplissage de la matrice par écoulement du mélange, (2) arasage, (3) compression et (4) éjection du comprimé. L'épaisseur moyenne des comprimés est de 3,2 mm.
Cet essai est destiné à déterminer, dans des conditions définies, la résistance à la rupture des comprimés, mesurée par la force nécessaire pour les rompre par écrasement entre deux mâchoires.
L'appareil utilisé (PTB 311E, Pharma test Instruments, Inde) est constitué de deux mâchoires se faisant face, dont l'une se déplace vers l'autre qui est fixe. Les surfaces planes des mâchoires sont perpendiculaires à la direction de déplacement.
Le mode opératoire consistait à mettre en place le comprimé à plat entre les mâchoires, puis, une mâchoire se déplaçait à vitesse constante pour appliquer une force jusqu'à la rupture du comprimé. Cette force maximale est notée et considérée comme la dureté du comprimé. La façon dont un comprimé se fracture quand une force croissante est appliquée varie considérablement selon les diverses caractéristiques des produits.

[6] = Hygroscopicity: water vapour sorption/desorption isotherm (TGA Q5000 SA, 25°C, up to 98% RH); settings: up to 98% relative humidity
Experimental: Les mesures d'absorption et de désorption d'eau des polymères ont été réalisées à l'aide d'un analyseur thermogravimétrique SA Q5000 de TA Instruments contenant une microbalance dans lequel des creusets contenant l'échantillon et la référence ont été enfermés dans une chambre à humidité et température contrôlées. La température dans le Q5000 SA a été contrôlée par des éléments Peltier. Un gaz sec de N2 (200 mL/min) a été divisé en deux parties, dont une partie a été humidifiée par passage dans une chambre saturée d'eau. L'humidité relative souhaitée (RH) pour les mesures peut ainsi être obtenue par mélange des proportions appropriées (régulées par les contrôleurs de débit massique) de flux sec et humide.
La mesure de l'isotherme standard est composée d'un certain nombre d'étapes. Premièrement, l'échantillon a été séché à 60°C et 0% d'humidité relative pendant un temps déterminé jusqu'à ce que la variation de poids soit stabilisée à moins de 0,05%. Dans un second temps, la température a été abaissée à 25°C. L'humidité a ensuite été augmentée progressivement (par pas de 2% d'humidité relative) à un maximum de 98% d'humidité relative. La variation de poids de l'échantillon a été stabilisée après chaque étape jusqu'à ce qu'elle soit inférieure à 0,05%. L'isotherme de désorption de l'eau a également été mesurée. […]

Constante de complexation K1:1 [1]: 11 M⁻¹
TAP (Ic^∗) [2]: > 20%
TAP (Ic^∗) ([2]; listed as CD (monomère)): 23,1%
Ecoulement ([2]; powder of βCD polymer fractions): Non Libre
Constante de complexation K1:1 [3]: 173 M⁻¹
Temps de désagrégation [4]: > 30 min
Résistance à la rupture [5]: 45-50 N
valeur maximale de prise d'eau [6]: 0,18 g/g
Structure (SMILES): OC[C@H]1O[C@@H]2O[C@H]3[C@H](O)[C@@H](O)[C@@H](O[C@H]4[C@H](O)[C@@H](O)[C@@H](O[C@H]5[C@H](O)[C@@H](O)[C@@H](O[C@H]6[C@H](O)[C@@H](O)[C@@H](O[C@H]7[C@H](O)[C@@H](O)[C@@H](O[C@H]8[C@H](O)[C@@H](O)[C@@H](O[C@H]1[C@H](O)[C@H]2O)O[C@@H]8CO)O[C@@H]7CO)O[C@@H]6CO)O[C@@H]5CO)O[C@@H]4CO)O[C@@H]3CO [βCD, β-cyclodextrine]
